From paper PMC5218480 (PLoS ONE, 2017)

Test system: MV-4-11 cells
Assay: Gene expression microarray analysis (Affymetrix PrimeView) and GSEA
Assay type: cell-based, human
Parameters: RFU PODN (11730768_x_at) / Fold change /veh PODN (11730768_x_at) / RFU LINC00158 (11744669_a_at) / Fold change /veh LINC00158 (11744669_a_at) / RFU DUSP10 (11751237_a_at) / Fold change /veh DUSP10 (11751237_a_at) / RFU ID3 (11757404_x_at) / Fold change /veh ID3 (11757404_x_at) / RFU PLEKHG5 (11737974_s_at) / Fold change /veh PLEKHG5 (11737974_s_at) / RFU LRRC4B (11730491_at) / Fold change /veh LRRC4B (11730491_at) / RFU GIMAP4 (11747438_a_at) / Fold change /veh GIMAP4 (11747438_a_at) / RFU KRT8 (11758183_x_at) / Fold change /veh KRT8 (11758183_x_at) / RFU CNN1 (11734310_a_at) / Fold change /veh CNN1 (11734310_a_at) / RFU VPS37D (11726825_at) / Fold change /veh VPS37D (11726825_at) / RFU C10orf10 (11716522_x_at) / Fold change /veh C10orf10 (11716522_x_at) / RFU KIR2DL2 /// KIR2DL4 /// KIR2DL5A /// KIR2DL5B /// KIR2DS1 /// KIR2DS2 /// KIR2DS3 /// KIR2DS4 /// KIR3DL3 /// KIR3DL3 /// KIR3DS1 (11738374_at) / Fold change /veh KIR2DL2 /// KIR2DL4 /// KIR2DL5A /// KIR2DL5B /// KIR2DS1 /// KIR2DS2 /// KIR2DS3 /// KIR2DS4 /// KIR3DL3 /// KIR3DL3 /// KIR3DS1 (11738374_at) / RFU C1QL1 (11718748_at) / Fold change /veh C1QL1 (11718748_at) / RFU TMPRSS4 (11747572_a_at) / Fold change /veh TMPRSS4 (11747572_a_at) / RFU HAMP (11756126_x_at) / Fold change /veh HAMP (11756126_x_at) / RFU RNFT2 (11725882_a_at) / Fold change /veh RNFT2 (11725882_a_at) / RFU NR4A2 (11747474_a_at) / Fold change /veh NR4A2 (11747474_a_at) / RFU ABCC12 (11746883_a_at) / Fold change /veh ABCC12 (11746883_a_at) / RFU TMEM136 (11760407_x_at) / Fold change /veh TMEM136 (11760407_x_at) / RFU CLDN22 /// WWC2 (11732394_at) / Fold change /veh CLDN22 /// WWC2 (11732394_at) / RFU HLA-DPB1 (11760878_x_at) / Fold change /veh HLA-DPB1 (11760878_x_at) / RFU SPINT1 (11716480_a_at) / Fold change /veh SPINT1 (11716480_a_at) / RFU GAP43 (11754022_s_at) / Fold change /veh GAP43 (11754022_s_at) / RFU A4GNT (11735810_at) / Fold change /veh A4GNT (11735810_at) / RFU PRB3 (11715151_x_at) / Fold change /veh PRB3 (11715151_x_at) / RFU TUBB4B (11761932_at) / Fold change /veh TUBB4B (11761932_at) / RFU CAPN14 (11732068_a_at) / Fold change /veh CAPN14 (11732068_a_at) / RFU TMCC2 (11721928_a_at) / Fold change /veh TMCC2 (11721928_a_at) / RFU IRGQ (11745062_a_at) / Fold change /veh IRGQ (11745062_a_at) / RFU FAM174B (11720279_a_at) / Fold change /veh FAM174B (11720279_a_at) / RFU TMPRSS4 (11748680_a_at) / Fold change /veh TMPRSS4 (11748680_a_at) / RFU FAM212B (11763350_a_at) / Fold change /veh FAM212B (11763350_a_at) / RFU PLEKHG5 (11743358_a_at) / Fold change /veh PLEKHG5 (11743358_a_at) / RFU ZSCAN30 (11745921_a_at) / Fold change /veh ZSCAN30 (11745921_a_at) / RFU CMKLR1 (11741424_a_at) / Fold change /veh CMKLR1 (11741424_a_at) / RFU LOC101060620 /// MAPK8IP1 (11723275_at) / Fold change /veh LOC101060620 /// MAPK8IP1 (11723275_at) / RFU SPTSSB (11747773_x_at) / Fold change /veh SPTSSB (11747773_x_at) / RFU PRSS12 (11739890_at) / Fold change /veh PRSS12 (11739890_at) / RFU BIN1 (11741810_x_at) / Fold change /veh BIN1 (11741810_x_at) / RFU WNT11 (11732464_a_at) / Fold change /veh WNT11 (11732464_a_at) / RFU C10orf10 (11716521_a_at) / Fold change /veh C10orf10 (11716521_a_at) / RFU C5orf56 (11738089_at) / Fold change /veh C5orf56 (11738089_at) / RFU CYB561 (11721691_x_at) / Fold change /veh CYB561 (11721691_x_at) / RFU ANKRD19P (11752326_a_at) / Fold change /veh ANKRD19P (11752326_a_at) / RFU OR2T12 /// OR2T33 /// OR2T8 (11738714_s_at) / Fold change /veh OR2T12 /// OR2T33 /// OR2T8 (11738714_s_at) / RFU VCAN (11748164_a_at) / Fold change /veh VCAN (11748164_a_at) / RFU JSRP1 (11732532_at) / Fold change /veh JSRP1 (11732532_at) / RFU KRTAP10-11 (11738290_x_at) / Fold change /veh KRTAP10-11 (11738290_x_at) / RFU MYO3A (11730013_a_at) / Fold change /veh MYO3A (11730013_a_at) / RFU EBF3 (11725865_a_at) / Fold change /veh EBF3 (11725865_a_at) / RFU CAMK2N1 (11719241_x_at) / Fold change /veh CAMK2N1 (11719241_x_at) / RFU C5orf56 (11738088_a_at) / Fold change /veh C5orf56 (11738088_a_at) / RFU OLFML3 (11715873_a_at) / Fold change /veh OLFML3 (11715873_a_at) / RFU LOC100653217 /// NTM (11731650_a_at) / Fold change /veh LOC100653217 /// NTM (11731650_a_at) / RFU MAPK11 (11762145_a_at) / Fold change /veh MAPK11 (11762145_a_at) / RFU FIZ1 (11724087_x_at) / Fold change /veh FIZ1 (11724087_x_at) / RFU OASL (11726364_x_at) / Fold change /veh OASL (11726364_x_at) / RFU SOX15 (11748057_x_at) / Fold change /veh SOX15 (11748057_x_at) / RFU CD79A (11719716_a_at) / Fold change /veh CD79A (11719716_a_at) / RFU HIST1H1D (11736915_at) / Fold change /veh HIST1H1D (11736915_at) / RFU CASKIN2 (11723855_a_at) / Fold change /veh CASKIN2 (11723855_a_at) / RFU LOC730098 (11760151_x_at) / Fold change /veh LOC730098 (11760151_x_at) / RFU OR4N2 (11742367_at) / Fold change /veh OR4N2 (11742367_at) / RFU PRRT2 (11749266_a_at) / Fold change /veh PRRT2 (11749266_a_at) / RFU SNX32 (11753110_a_at) / Fold change /veh SNX32 (11753110_a_at) / RFU CDHR5 (11726645_a_at) / Fold change /veh CDHR5 (11726645_a_at) / RFU RCAN1 (11760418_a_at) / Fold change /veh RCAN1 (11760418_a_at) / RFU FAM167A (11723789_a_at) / Fold change /veh FAM167A (11723789_a_at) / RFU FAM26E (11764081_at) / Fold change /veh FAM26E (11764081_at) / RFU ISYNA1 (11749810_s_at) / Fold change /veh ISYNA1 (11749810_s_at) / RFU ACY1 (11761880_at) / Fold change /veh ACY1 (11761880_at) / RFU 11764098_at / Fold change /veh 11764098_at / RFU SAMD14 (11745864_x_at) / Fold change /veh SAMD14 (11745864_x_at) / RFU NPB (11741838_a_at) / Fold change /veh NPB (11741838_a_at) / RFU TMPRSS6 (11731388_a_at) / Fold change /veh TMPRSS6 (11731388_a_at) / RFU KRTAP10-2 (11738614_at) / Fold change /veh KRTAP10-2 (11738614_at) / RFU ARHGAP8 /// PRR5-ARHGAP8 (11727945_x_at) / Fold change /veh ARHGAP8 /// PRR5-ARHGAP8 (11727945_x_at) / RFU KRTAP5-7 /// NADSYN1 (11734609_at) / Fold change /veh KRTAP5-7 /// NADSYN1 (11734609_at) / RFU RASL12 (11751679_a_at) / Fold change /veh RASL12 (11751679_a_at) / RFU CDKN2B (11736163_a_at) / Fold change /veh CDKN2B (11736163_a_at) / RFU PRF1 (11729649_at) / Fold change /veh PRF1 (11729649_at) / RFU, ZNF638 /// ZNF638-IT1 / Fold change vs veh, ZNF638 /// ZNF638-IT1 / RFU, PANK3 / Fold change vs veh, PANK3 / RFU, SH3YL1 / Fold change vs veh, SH3YL1 / RFU, ZEB2 / Fold change vs veh, ZEB2 / RFU, NRIP1 / Fold change vs veh, NRIP1 / RFU, PTTG1IP / Fold change vs veh, PTTG1IP / RFU, CAPN2 / Fold change vs veh, CAPN2 / RFU, MED14 / Fold change vs veh, MED14 / RFU, SNORA58 / Fold change vs veh, SNORA58 / RFU, C1orf63 / Fold change vs veh, C1orf63 / RFU, LRRFIP1 / Fold change vs veh, LRRFIP1 / RFU, NDUFAF7 / Fold change vs veh, NDUFAF7 / RFU, SLC12A2 / Fold change vs veh, SLC12A2 / RFU, IBTK / Fold change vs veh, IBTK / RFU, ESF1 / Fold change vs veh, ESF1 / Fold change vs veh, TMEM50B / RFU, TAOK1 / Fold change vs veh, TAOK1 / RFU, ACBD3 / Fold change vs veh, ACBD3 / RFU, TMA16 / Fold change vs veh, TMA16 / RFU, RWDD3 / Fold change vs veh, RWDD3 / RFU, BCAT1 / Fold change vs veh, BCAT1 / RFU, EDEM3 / Fold change vs veh, EDEM3 / RFU, TMEM33 / Fold change vs veh, TMEM33 / RFU, WDR75 / Fold change vs veh, WDR75 / RFU, AHCTF1 / Fold change vs veh, AHCTF1 / RFU, TFRC / Fold change vs veh, TFRC / RFU, ZDHHC17 / Fold change vs veh, ZDHHC17 / RFU, NOM1 / Fold change vs veh, NOM1 / RFU, ARL8B / Fold change vs veh, ARL8B / RFU, ZBTB11 / Fold change vs veh, ZBTB11 / RFU, TAMM41 / Fold change vs veh, TAMM41 / RFU, KIAA1704 /// LOC100996395 / Fold change vs veh, KIAA1704 /// LOC100996395 / RFU, ING1 / Fold change vs veh, ING1 / RFU, TRMT61B / Fold change vs veh, TRMT61B / RFU, FUBP3 / Fold change vs veh, FUBP3 / RFU, TP53 / Fold change vs veh, TP53 / RFU, TNKS2 / Fold change vs veh, TNKS2 / RFU, ZFP14 / Fold change vs veh, ZFP14 / RFU, ACTR2 / Fold change vs veh, ACTR2 / RFU, PPP3R1 / Fold change vs veh, PPP3R1 / RFU, PIK3R1 / Fold change vs veh, PIK3R1 / RFU, HNRNPA1 / Fold change vs veh, HNRNPA1 / RFU, RNF170 / Fold change vs veh, RNF170 / RFU, ZNF28 / Fold change vs veh, ZNF28 / RFU, RNGTT / Fold change vs veh, RNGTT / RFU, OGT / Fold change vs veh, OGT / RFU, BRD1 / Fold change vs veh, BRD1 / RFU, MARS / Fold change vs veh, MARS / RFU, ZNF655 / Fold change vs veh, ZNF655 / RFU, FAHD1 / Fold change vs veh, FAHD1 / RFU, BDP1 / Fold change vs veh, BDP1 / RFU, LRRCC1 / Fold change vs veh, LRRCC1 / RFU, ARID1A / Fold change vs veh, ARID1A / RFU, ZNF146 / Fold change vs veh, ZNF146 / RFU, ZNF330 / Fold change vs veh, ZNF330 / RFU, GPN3 / Fold change vs veh, GPN3 / RFU, C9orf123 / Fold change vs veh, C9orf123 / RFU, N4BP2L2 / Fold change vs veh, N4BP2L2 / RFU, ARFIP1 / Fold change vs veh, ARFIP1 / RFU, FAM179B / Fold change vs veh, FAM179B / RFU, BCL10 / Fold change vs veh, BCL10 / RFU, UHRF1BP1L / Fold change vs veh, UHRF1BP1L / RFU, BET1 / Fold change vs veh, BET1 / RFU, CNOT2 / Fold change vs veh, CNOT2 / RFU, ZNF268 / Fold change vs veh, ZNF268 / Fold change vs veh, ZNF507 / RFU, DGCR2 / Fold change vs veh, DGCR2 / RFU, WDSUB1 / Fold change vs veh, WDSUB1 / Fold change vs veh, HSP90B1 /// MIR3652 / RFU, ADSS / Fold change vs veh, ADSS / RFU, GK / Fold change vs veh, GK / RFU, ZNF148 / Fold change vs veh, ZNF148 / RFU, TAF9 / Fold change vs veh, TAF9 / RFU, SLC1A5 / Fold change vs veh, SLC1A5 / RFU, SLMO2 / Fold change vs veh, SLMO2 / RFU, ABCC4 / Fold change vs veh, ABCC4 / RFU, LOC101060439 /// RAP1B / Fold change vs veh, LOC101060439 /// RAP1B / RFU, RFX7 / Fold change vs veh, RFX7 / RFU, GTPBP10 / Fold change vs veh, GTPBP10 / RFU, CNEP1R1 / Fold change vs veh, CNEP1R1 / RFU, BIVM-ERCC5 /// ERCC5 / Fold change vs veh, BIVM-ERCC5 /// ERCC5 / RFU, ILF3 / Fold change vs veh, ILF3 / RFU 11762660_at / Fold change /veh 11762660_at / RFU VCAN (11757783_s_at) / Fold change /veh VCAN (11757783_s_at) / RFU DDX43 (11728927_at) / Fold change /veh DDX43 (11728927_at) / RFU KRT8 (11758188_x_at) / Fold change /veh KRT8 (11758188_x_at) / RFU NKD1 (11759106_at) / Fold change /veh NKD1 (11759106_at) / RFU SRD5A1 (11742802_a_at) / Fold change /veh SRD5A1 (11742802_a_at) / RFU TPSAB1 /// TPSB2 (11721975_s_at) / Fold change /veh TPSAB1 /// TPSB2 (11721975_s_at) / RFU GSTM3 (11746129_a_at) / Fold change /veh GSTM3 (11746129_a_at) / RFU IL23R (11737362_x_at) / Fold change /veh IL23R (11737362_x_at) / RFU TMEM51 (11727254_a_at) / Fold change /veh TMEM51 (11727254_a_at) / RFU PIWIL2 (11732686_x_at) / Fold change /veh PIWIL2 (11732686_x_at) / RFU ORM1 (11744905_x_at) / Fold change /veh ORM1 (11744905_x_at) / RFU CCDC152 (11743942_at) / Fold change /veh CCDC152 (11743942_at) / RFU ECM1 (11717891_a_at) / Fold change /veh ECM1 (11717891_a_at) / RFU IL23R (11748794_a_at) / Fold change /veh IL23R (11748794_a_at) / RFU TNFAIP8L3 (11732012_x_at) / Fold change /veh TNFAIP8L3 (11732012_x_at) / RFU MBOAT4 (11741988_at) / Fold change /veh MBOAT4 (11741988_at) / RFU 11764193_at / Fold change /veh 11764193_at / RFU TMEM53 (11763286_at) / Fold change /veh TMEM53 (11763286_at) / RFU MAGEB2 (11727129_at) / Fold change /veh MAGEB2 (11727129_at) / RFU TMEM200A (11744735_a_at) / Fold change /veh TMEM200A (11744735_a_at) / RFU CCDC152 (11751479_a_at) / Fold change /veh CCDC152 (11751479_a_at) / RFU FAM211A (11726209_a_at) / Fold change /veh FAM211A (11726209_a_at) / RFU RGS16 (11746705_a_at) / Fold change /veh RGS16 (11746705_a_at) / RFU VCAN (11755009_s_at) / Fold change /veh VCAN (11755009_s_at) / RFU RHOB (11743442_s_at) / Fold change /veh RHOB (11743442_s_at) / RFU RGS16 (11720943_a_at) / Fold change /veh RGS16 (11720943_a_at) / RFU RGS16 (11720944_at) / Fold change /veh RGS16 (11720944_at) / RFU, VPS4B / Fold change vs veh, VPS4B / RFU, CREB1 / Fold change vs veh, CREB1 / RFU, DNAJC13 / Fold change vs veh, DNAJC13 / RFU, GNAQ / Fold change vs veh, GNAQ / RFU, CDK5R1 / Fold change vs veh, CDK5R1 / RFU, ZRANB3 / Fold change vs veh, ZRANB3 / RFU, CUL4A / Fold change vs veh, CUL4A / RFU, CCNY / Fold change vs veh, CCNY / RFU, UFL1 / Fold change vs veh, UFL1 / RFU, COG3 / Fold change vs veh, COG3 / RFU, DIAPH2 / Fold change vs veh, DIAPH2 / RFU, SKA2 / Fold change vs veh, SKA2 / RFU, AFF3 / Fold change vs veh, AFF3 / RFU, LMF1 / Fold change vs veh, LMF1 / RFU, IPO11 / Fold change vs veh, IPO11 / RFU, DFFB / Fold change vs veh, DFFB / RFU, FOXP1 / Fold change vs veh, FOXP1 / RFU, CARD8 / Fold change vs veh, CARD8 / RFU, STRN3 / Fold change vs veh, STRN3 / RFU, ADK / Fold change vs veh, ADK / RFU, RASSF2 / Fold change vs veh, RASSF2 / RFU, WIPF1 / Fold change vs veh, WIPF1 / RFU, LARP1B / Fold change vs veh, LARP1B / RFU, RASA1 / Fold change vs veh, RASA1 / RFU, RB1 / Fold change vs veh, RB1 / RFU, PPFIA1 / Fold change vs veh, PPFIA1 / RFU, MAT2A / Fold change vs veh, MAT2A / RFU, CCT5 / Fold change vs veh, CCT5 / RFU, WDR92 / Fold change vs veh, WDR92 / RFU, CUX1 / Fold change vs veh, CUX1 / RFU, TTC7A / Fold change vs veh, TTC7A / RFU, TMEM135 / Fold change vs veh, TMEM135 / RFU, DEPTOR / Fold change vs veh, DEPTOR / RFU, CPM / Fold change vs veh, CPM / RFU, DNAJB6 / Fold change vs veh, DNAJB6 / RFU, CACNA2D3 / Fold change vs veh, CACNA2D3 / RFU, DTX4 / Fold change vs veh, DTX4 / RFU, TFCP2 / Fold change vs veh, TFCP2 / RFU, GMCL1 /// GMCL1P1 / Fold change vs veh, GMCL1 /// GMCL1P1 / RFU, AEBP2 / Fold change vs veh, AEBP2 / RFU, SNHG1 /// SNORD22 /// SNORD25 /// SNORD26 /// SNORD27 /// SNORD28 /// SNORD29 /// SNORD31 / Fold change vs veh, SNHG1 /// SNORD22 /// SNORD25 /// SNORD26 /// SNORD27 /// SNORD28 /// SNORD29 /// SNORD31 / Fold change (Aza/veh), C12orf56 (ProbeSet 11735607_a_at) / Fold change (ACY-1035/veh), C12orf56 (ProbeSet 11735607_a_at) / Fold change (Aza/veh), FGFR1OP (ProbeSet 11751329_s_at) / Fold change (ACY-1035/veh), FGFR1OP (ProbeSet 11751329_s_at) / Fold change (Aza/veh), VPS36 (ProbeSet 11739960_a_at) / Fold change (ACY-1035/veh), VPS36 (ProbeSet 11739960_a_at) / RFU SYPL1 (11715823_x_at) / Fold change /veh SYPL1 (11715823_x_at) / RFU IGFBP7 (11715501_s_at) / Fold change /veh IGFBP7 (11715501_s_at) / RFU REEP3 (11722064_at) / Fold change /veh REEP3 (11722064_at) / RFU IGLL1 (11728026_x_at) / Fold change /veh IGLL1 (11728026_x_at): dose or concentration left out as unconfirmed
Conditions: ProbeSet 11740528_a_at; LIST D

`Nc1ccc(-c2cccs2)cc1NC(=O)c1ccc2c(c1)cc(C1CC1)n2CCN1CCOCC1` [ACY-1035] was tested, and the “Fold change vs veh, AFF3” value was 0.95.
